Our source for the TGI values is PubChem BioAssay (NCI).

Experiment in all cases: NCI-60 cell line screen, 48 h
Test [1] has as its system ACHN renal.
The subject of test [2] is EKVX NSCLC.
Test [3] concerns HL-60(TB) leukemia.
In test [4] the test system is HOP-62 NSCLC.
The subject of test [5] is HOP-92 NSCLC.
Test [6] relates to HS 578T breast.
In test [7] the test system is LOX IMVI melanoma.
Test [8] concerns M14 melanoma.
The subject of test [9] is MDA-MB-435.
The test system of test [10] is NCI-H522 lung.
In test [11] the test system is OVCAR-3 ovarian.
In test [12] the test system is OVCAR-8 ovarian.
The subject of test [13] is PC-3 prostate.
Test [14] relates to SF-268 CNS.
Test [15] deals with SF-539 CNS.
Test [16] deals with SNB-19 CNS.
Test [17] deals with TK-10 renal.
For test [18], the system named is UACC-62 melanoma.

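Assay format: 96-well plates, 48-hour exposure. TGI denotes the concentration required for complete inhibition of growth.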

With `CC(NCc1c(O)ccc2c(-c3ccccc3)cc(=O)oc12)C(=O)O` (stereo not given), the TGI in test [1], in test [2], in test [3], in test [4], in test [5] and in test [6] was > 100 µM in each case. Further, the TGI in [7], in [8], in [9], in [10], in [11] and in [12] was > 100 µM in each case. In addition, the TGI in test [13], in test [14], in test [15], in [16], in [17] and in [18] was > 100 µM each time.

Regarding `O=C1c2ccccc2C(=O)N1/N=C1/SC(=Nc2ccccc2)C(=Nc2ccccc2)N1c1ccccc1`, the TGI in [1], in [2], in test [3], in [4], in [5] and in test [6] was > 100 µM throughout. The TGI in test [7] was > 100 µM; in [8], > 100 µM; in test [9] it was > 100 µM; in [10] it was > 100 µM; in test [11], > 100 µM; in test [12], > 75.9 µM. Further, the TGI in test [13], in test [14], in test [15], in [16], in [17] and in test [18] was > 100 µM each time.

`COc1cc(CN=c2nc(N(C)C)ss2)cc(OC)c1OC`: the TGI in test [1] is > 10 µM; in [2], > 10 µM; in test [3] it was 4.47 µM; in [4], > 10 µM; in test [5], > 10 µM; in [6], > 10 µM. Moreover, the TGI in [7] is 4.4 µM; in test [8], > 10 µM; in test [9], > 10 µM; in test [10] it was > 10 µM; in test [11], > 10 µM; in [12], > 8.92 µM. The TGI in test [13], in test [14], in [15], in test [16], in test [17] and in test [18] was > 10 µM throughout.

With `COc1ccc2c(c1)/C(=C/c1c(O)[nH]c(=S)[nH]c1=O)C=N2`, the TGI in test [1], in test [2], in test [3], in test [4], in test [5] and in test [6] was > 100 µM in each case. Besides, the TGI in [7], in test [8], in test [9], in [10], in test [11] and in test [12] was > 100 µM in each case. Further, the TGI is > 100 µM in test [13]; 61.8 µM in test [14]; > 100 µM in test [15]; > 100 µM in test [16]; > 100 µM in test [17]; > 100 µM in [18].

`O=C(CNc1ccccc1[N+](=O)[O-])Nn1cnc2ccc(S(=O)(=O)Nc3ccccc3[N+](=O)[O-])cc2c1=O`: the TGI in test [1], in test [2], in test [3], in test [4], in [5] and in [6] was > 100 µM in each case. Moreover, the TGI in [7], in test [8], in test [9], in test [10], in [11] and in test [12] was > 100 µM throughout. The TGI in test [13], in [14], in [15], in test [16], in [17] and in test [18] was > 100 µM each time.

As to `C=CC(=O)NCCC(=O)OCn1cc(F)c(=O)[nH]c1=O`, the TGI in test [1], in test [2], in test [3], in [4], in test [5] and in test [6] was > 100 µM each time. Besides, the TGI in test [7], in test [8], in test [9], in test [10], in test [11] and in [12] was > 100 µM each time. The TGI in test [13], in test [14], in test [15], in test [16], in test [17] and in test [18] was > 100 µM each time.

On to `O=C1c2ccccc2-c2nnc3c(c21)Cc1ccccc1C3`, for which the TGI in [1], in test [2], in test [3], in test [4], in test [5] and in test [6] was > 10 µM throughout. For the same compound, the TGI in [7], in test [8], in test [9], in test [10], in [11] and in test [12] was > 10 µM in each case. In addition, the TGI in test [13], in [14], in test [15], in test [16], in [17] and in test [18] was > 10 µM in each case.

With `COC(=O)C(=O)C(C(=O)C(=O)Nc1ccc(Cl)c(Cl)c1)c1nc2ccc(C(=O)c3ccccc3)cc2[nH]c1=O` (stereo not given), the TGI in [1], in test [2], in test [3], in [4], in test [5] and in test [6] was > 100 µM in each case. For the same compound, the TGI in test [7], in test [8], in test [9], in [10], in test [11] and in test [12] was > 100 µM in each case. Besides, the TGI in [13], in test [14], in test [15], in test [16], in test [17] and in [18] was > 100 µM each time.

In the case of `COc1ccc(/C=C/C(=O)c2cc(OC)cc(OC)c2)cc1`, the TGI was 17.7 µM in test [1]; 20 µM in test [2]; 9.73 µM in [3]; 14.6 µM in [4]; 60.4 µM in test [5]; 15.1 µM in test [6]. The TGI in [7] is 15.4 µM; in test [8], 6.83 µM; in [9], 3.45 µM; in [10] it was 6.29 µM; in [11], 15.1 µM; in test [12], 18.3 µM. Further, the TGI in test [13] was 20.7 µM; in test [14], 16.4 µM; in test [15], 7.93 µM; in [16], 7.3 µM; in test [17], 23.9 µM; in test [18], 16.9 µM.

`Cc1cn2cc(-c3cccs3)nc2s1`: the TGI in test [1], in test [2], in test [3], in test [4], in test [5] and in [6] was > 100 µM throughout. The TGI in test [7], in [8], in [9], in test [10], in [11] and in test [12] was > 100 µM throughout. Also, the TGI in test [13], in test [14], in test [15], in [16], in test [17] and in test [18] was > 100 µM each time.

As to `CC(C)=CCC[C@@H](C)[C@H]1CC[C@@]2(C)[C@@H]3CC[C@H]4C(C)(C)[C@@H](O)CC[C@@]45C[C@@]35CC[C@]12C`, the TGI in [1] is > 73.1 µM; in test [2], > 88.8 µM; in test [3], > 95.4 µM; in test [4] it was 59.6 µM; in [5], 44.2 µM; in test [6], > 100 µM. Besides, the TGI in [7] was 56.5 µM; in [8] it was > 85.1 µM; in test [9] it was > 68.8 µM; in test [10], 49.3 µM; in [11], > 100 µM; in test [12], 42.6 µM. The TGI is > 100 µM in test [13]; > 76.4 µM in test [14]; > 70.9 µM in [15]; > 100 µM in test [16]; > 100 µM in test [17]; > 100 µM in test [18].

Consider `COc1cccc(OC)c1C1ON=C(c2ccccc2)N1C12CC3CC(CC(C3)C1)C2` (stereo not given), for which the TGI in test [1] is > 100 µM; in test [2], > 100 µM; in test [3], 4.63 µM; in [4] it was > 100 µM; in test [5], 88.4 µM; in test [6] it was > 100 µM. For the same compound, the TGI in test [7], in test [8], in test [9], in test [10], in [11] and in [12] was > 100 µM each time. Moreover, the TGI in test [13], in test [14], in test [15], in test [16], in [17] and in [18] was > 100 µM in each case.

For the compound `N=c1sc2ccccc2n1CCS` (tested in a mixture with another compound), the TGI was 31.7 µM in test [1]; 62.3 µM in [2]; 66.9 µM in [3]; 39.8 µM in [4]; 38.4 µM in [5]; > 100 µM in test [6]. Also, the TGI came out at 30.5 µM in test [7]; 30.6 µM in test [8]; 36.3 µM in test [9]; 45.4 µM in test [10]; 40.9 µM in test [11]; 31.8 µM in test [12]. The TGI in test [13] is > 100 µM; in test [14], 49.1 µM; in test [15], 19.3 µM; in [16] it was 37.6 µM; in [17] it was 48.6 µM; in test [18] it was 26.9 µM.

Turning to `O=C1C2C3C4C1C1C2[C@H](OCc2ccccc2)C3C1[C@H]4OCc1ccccc1` (stereo not given in full), the TGI in test [1] is > 100 µM; in test [2], 89.1 µM; in [3] it was 50.9 µM; in test [4] it was > 100 µM; in test [5], 66.3 µM; in test [6] it was 60.4 µM. Also, the TGI in [7] was > 100 µM; in test [8], > 100 µM; in [9], > 100 µM; in test [10], 57.9 µM; in test [11], > 100 µM; in [12] it was > 100 µM. The TGI in test [13], in [14], in [15], in test [16], in test [17] and in [18] was > 100 µM throughout.

With `C=C1c2nc3ccccc3n2C=C(c2ccc(OC)cc2)N1c1ccc(OCCN2CCCCC2)cc1`, the TGI was > 81.7 µM in test [1]; > 100 µM in test [2]; 20 µM in test [3]; > 100 µM in test [4]; > 82 µM in test [5]; > 100 µM in test [6]. Moreover, the TGI in [7] was > 44 µM; in test [8], > 100 µM; in [9], > 74.9 µM; in test [10], > 100 µM; in test [11], > 100 µM; in test [12], > 100 µM. Also, the TGI is > 51.3 µM in [13]; > 100 µM in test [14]; 81.2 µM in test [15]; > 100 µM in test [16]; 41.8 µM in [17]; > 100 µM in [18].
